pEC50: −log10 of the molar value.
Molecular target: T1, Ssy1p (Saccharomyces cerevisiae, UniProt Q03770)
T1 sequence (Q03770 1-852): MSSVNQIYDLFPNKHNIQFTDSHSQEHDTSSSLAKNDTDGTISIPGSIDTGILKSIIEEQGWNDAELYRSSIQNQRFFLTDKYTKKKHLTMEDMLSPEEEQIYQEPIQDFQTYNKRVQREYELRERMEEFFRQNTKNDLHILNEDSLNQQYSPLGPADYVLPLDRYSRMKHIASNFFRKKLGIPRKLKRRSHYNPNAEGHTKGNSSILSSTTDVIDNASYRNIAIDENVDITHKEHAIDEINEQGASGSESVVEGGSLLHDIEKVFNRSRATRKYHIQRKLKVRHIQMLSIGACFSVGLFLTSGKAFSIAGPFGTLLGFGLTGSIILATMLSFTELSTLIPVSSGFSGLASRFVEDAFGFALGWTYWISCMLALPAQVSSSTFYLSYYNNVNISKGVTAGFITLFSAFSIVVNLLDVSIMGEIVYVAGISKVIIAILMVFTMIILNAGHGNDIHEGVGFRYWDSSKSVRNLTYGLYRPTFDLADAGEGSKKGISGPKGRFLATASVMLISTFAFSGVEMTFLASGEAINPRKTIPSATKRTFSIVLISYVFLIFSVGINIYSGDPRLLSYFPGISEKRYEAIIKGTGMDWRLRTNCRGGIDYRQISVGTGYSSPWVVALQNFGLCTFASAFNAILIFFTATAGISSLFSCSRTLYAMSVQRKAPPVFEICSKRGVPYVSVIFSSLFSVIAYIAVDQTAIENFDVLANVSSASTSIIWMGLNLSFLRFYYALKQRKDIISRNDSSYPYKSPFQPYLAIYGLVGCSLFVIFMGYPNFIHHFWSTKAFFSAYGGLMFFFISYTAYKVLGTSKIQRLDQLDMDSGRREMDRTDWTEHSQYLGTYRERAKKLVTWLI
Experiment: Ssy1p signaling measured as Stp1p processing
Assay type: cell-based
Conditions: for pEC50: EC50 for sensing of extracellular amino acid, grown in SD

| Structure (SMILES) | Effect on EC50 of adding isoamyl alcohol (isoamyl alcohol at relevant concentrations, unpublished data) | pEC50 (experiment 1, strain M5447 (ura3 gap1Δ), Leuc 0.5 μmol/g DW, mean of triplicate) | pEC50 (experiment 5, strain M5568 (ura3 gap1Δ bap2Δ tat1Δ bap3Δ agp1::URA3), Leuc 1 μmol/g DW) | pEC50 (experiment 9, strain M5446 (ura3 gap1Δ LEU4-fbr), Leuc 12 μmol/g DW) |
| --- | --- | --- | --- | --- |
| CC(C)CCO [isoamyl alcohol] | no significant effect |  |  |  |
| CC(C)C[C@H](N)C(=O)O [Leu, leucine] |  | 4.89 | 4.82 | 4.52 |

Reference: article PMC2063833 (The Journal of Cell Biology, 2006)
